Here are results for 26 molecules from patent US10562857B2 (AFASCI, Inc., priority 2015, dated 2020).

The assay has as its target T1, Cav3.2 channel (Homo sapiens, UniProt O95180).
T1 construct: expressed in transfected cells; host or cells: HEK-293, tetracycline inducible expression system (Invitrogen)
As to the kind of experiment: Whole-cell patch clamp of T-type Cav3.2 channel expressed in HEK293 cells. Format: cell-based. Particulars: for inhibition at 1 µM / inhibition at 3 µM: HEK293, Table 1 primary screening; for inhibition at 3 µM: 3 μM as indicated in cell, read-out: % inhibition at 3 μM. How it is done:
Cav3.1, Cav3.2 or Cav3.3 channels were expressed in human embryonic kidney (HEK)-293 cells using a tetracycline inducible expression system (Invitrogen). Cells were maintained in 25 cm^2 tissue culture flasks at 37° C., 5% CO2, and 100% relative humidity in D-MEM/F12 (Dulbecco's Modified Eagle Medium/Nutrient Mixture F-12; Gibco) supplemented with fetal bovine serum (FBS, 10% v/v), sodium pyruvate (0.5 mM, Gibco), penicillin-streptomycin (100 U/mL, 100 μg/mL) and Geneticin® Selective antibiotic (G418; 0.5 mg/mL). Cells were detached from the flask base using a non-enzymatic cell dissociation solution (Cellstripper, Corning), removed and re-seeded on to poly-D-lysine coated glass coverslips in 35 mm dishes. Cells in dishes were further supplemented with G418 at a final concentration of 1 mg/mL and after 24 hours, expression of Cav3.2 was induced with 1 μg/mL tetracycline. The medium for the HEK-293 cells was composed of D-MEM/F-12 (Dulbecco's Modified Eagle Medium/Nutrient Mixture F-12; Gibco, #11330-032) and 15 mM HEPES buffer, with L-glutamine and pyridoxine hydrochloride. It was supplemented with FBS (Fetal Bovine Serum), P/S (Penicillin/Streptomycin) (Gibco, #15140-122), and sodium pyruvate 100 mM (Gibco, #11360-070). At least 24 hours before the assay, expression of the alpha-2-delta-1 and beta2a subunits of the calcium channel were induced with 1 ug/mL tetracycline.
Whole-cell voltage clamp recordings were performed on rat or mouse DRG neurons within 2 days after acutely dissociation or cultured HEK293 cells expressing T-type channels (encoded by Cav3.1, Cav3.2 or Cav3.3 channels). All experiments were performed at room temperature (around 21° C.). Whole-cell currents were recorded using a MultiClamp 700B amplifier and analyzed offline with pCLAMP10.4 software (Molecular Devices, LLC, Sunnyvale Calif., USA). To record calcium currents in DRG and HEK293 cells, the external solution was composed (in mM) of 115 choline-Cl, 30 TEA-Cl, 2 CaCl2, 10 glucose and 10 HEPES (pH 7.3-7.4 adjusted with TEA-OH; osmolality verified as 295 mOsm/kg). The internal solution was composed (in mM) of 125 CsCl, 10 HEPES (acid), 10 EGTA (ethylene glycol tetraacetic acid), 1 CaCl2, 1 MgCl2, 4 MgATP and 0.3 MgGTP (pH 7.3-7.4 adjusted with CsOH; osmolality verified as 295 mOsm/kg). Since the sodium ions were absent in the external solution, tetrodoctoxin was not needed. Calcium currents were recorded at a holding potential of −100 mV and then depolarized to −30 mV for 100 ms to activate either Cav3.1, Cav3.2, or Cav3.3 expressed in HEK cells. An interpulse interval of 10 seconds allowed the channel recovery from inactivation, and achieved stable current recordings. To record sodium (Na^+) currents in DRG neurons, the external solution used the modified Krebs solution specified above. The internal solution was composed (in mM) of 120 CsF, 10 HEPES, 11 EGTA, 1 CaCl2, 1 MgCl2, 10 TEA-Cl, 4 MgATP and 0.3 MgGTP (pH 7.3-7.4 adjusted with CsOH). […] To record potassium currents in DRG neurons, the external solution used the modified Kreb's solution specified above. The internal solution was composed (in mM) of 65 KCl, 80 KF, 5 KOH, 10 EGTA, 2 MgATP (pH 7.3-7.4 adjusted with KOH). Recording electrodes were fabricated using a P-87 puller (Sutter Instrument Co., Novato, Calif., USA). The tip of resistance was 3-4 MQ in bath and the series resistance was less than 10 MΩ after whole cell configuration. All reagents were purchased from Sigma unless specified otherwise. Test compounds were usually applied via a rapid solution exchange system with 8 fine polyplastic tubings (100 μm, OD) glued in a holder in parallel and located closely to the recorded cells. […]
On the technique in general: Patch clamp records ionic current or voltage across a cell membrane.

Where [1] appears, read: Table 1, tested at at least 4 concentrations, read-out: IC50.

Molecules are shown by their SMILES. Read-outs that look alike come from different tables or passages of the source.

T1 sequence (O95180 whole entry): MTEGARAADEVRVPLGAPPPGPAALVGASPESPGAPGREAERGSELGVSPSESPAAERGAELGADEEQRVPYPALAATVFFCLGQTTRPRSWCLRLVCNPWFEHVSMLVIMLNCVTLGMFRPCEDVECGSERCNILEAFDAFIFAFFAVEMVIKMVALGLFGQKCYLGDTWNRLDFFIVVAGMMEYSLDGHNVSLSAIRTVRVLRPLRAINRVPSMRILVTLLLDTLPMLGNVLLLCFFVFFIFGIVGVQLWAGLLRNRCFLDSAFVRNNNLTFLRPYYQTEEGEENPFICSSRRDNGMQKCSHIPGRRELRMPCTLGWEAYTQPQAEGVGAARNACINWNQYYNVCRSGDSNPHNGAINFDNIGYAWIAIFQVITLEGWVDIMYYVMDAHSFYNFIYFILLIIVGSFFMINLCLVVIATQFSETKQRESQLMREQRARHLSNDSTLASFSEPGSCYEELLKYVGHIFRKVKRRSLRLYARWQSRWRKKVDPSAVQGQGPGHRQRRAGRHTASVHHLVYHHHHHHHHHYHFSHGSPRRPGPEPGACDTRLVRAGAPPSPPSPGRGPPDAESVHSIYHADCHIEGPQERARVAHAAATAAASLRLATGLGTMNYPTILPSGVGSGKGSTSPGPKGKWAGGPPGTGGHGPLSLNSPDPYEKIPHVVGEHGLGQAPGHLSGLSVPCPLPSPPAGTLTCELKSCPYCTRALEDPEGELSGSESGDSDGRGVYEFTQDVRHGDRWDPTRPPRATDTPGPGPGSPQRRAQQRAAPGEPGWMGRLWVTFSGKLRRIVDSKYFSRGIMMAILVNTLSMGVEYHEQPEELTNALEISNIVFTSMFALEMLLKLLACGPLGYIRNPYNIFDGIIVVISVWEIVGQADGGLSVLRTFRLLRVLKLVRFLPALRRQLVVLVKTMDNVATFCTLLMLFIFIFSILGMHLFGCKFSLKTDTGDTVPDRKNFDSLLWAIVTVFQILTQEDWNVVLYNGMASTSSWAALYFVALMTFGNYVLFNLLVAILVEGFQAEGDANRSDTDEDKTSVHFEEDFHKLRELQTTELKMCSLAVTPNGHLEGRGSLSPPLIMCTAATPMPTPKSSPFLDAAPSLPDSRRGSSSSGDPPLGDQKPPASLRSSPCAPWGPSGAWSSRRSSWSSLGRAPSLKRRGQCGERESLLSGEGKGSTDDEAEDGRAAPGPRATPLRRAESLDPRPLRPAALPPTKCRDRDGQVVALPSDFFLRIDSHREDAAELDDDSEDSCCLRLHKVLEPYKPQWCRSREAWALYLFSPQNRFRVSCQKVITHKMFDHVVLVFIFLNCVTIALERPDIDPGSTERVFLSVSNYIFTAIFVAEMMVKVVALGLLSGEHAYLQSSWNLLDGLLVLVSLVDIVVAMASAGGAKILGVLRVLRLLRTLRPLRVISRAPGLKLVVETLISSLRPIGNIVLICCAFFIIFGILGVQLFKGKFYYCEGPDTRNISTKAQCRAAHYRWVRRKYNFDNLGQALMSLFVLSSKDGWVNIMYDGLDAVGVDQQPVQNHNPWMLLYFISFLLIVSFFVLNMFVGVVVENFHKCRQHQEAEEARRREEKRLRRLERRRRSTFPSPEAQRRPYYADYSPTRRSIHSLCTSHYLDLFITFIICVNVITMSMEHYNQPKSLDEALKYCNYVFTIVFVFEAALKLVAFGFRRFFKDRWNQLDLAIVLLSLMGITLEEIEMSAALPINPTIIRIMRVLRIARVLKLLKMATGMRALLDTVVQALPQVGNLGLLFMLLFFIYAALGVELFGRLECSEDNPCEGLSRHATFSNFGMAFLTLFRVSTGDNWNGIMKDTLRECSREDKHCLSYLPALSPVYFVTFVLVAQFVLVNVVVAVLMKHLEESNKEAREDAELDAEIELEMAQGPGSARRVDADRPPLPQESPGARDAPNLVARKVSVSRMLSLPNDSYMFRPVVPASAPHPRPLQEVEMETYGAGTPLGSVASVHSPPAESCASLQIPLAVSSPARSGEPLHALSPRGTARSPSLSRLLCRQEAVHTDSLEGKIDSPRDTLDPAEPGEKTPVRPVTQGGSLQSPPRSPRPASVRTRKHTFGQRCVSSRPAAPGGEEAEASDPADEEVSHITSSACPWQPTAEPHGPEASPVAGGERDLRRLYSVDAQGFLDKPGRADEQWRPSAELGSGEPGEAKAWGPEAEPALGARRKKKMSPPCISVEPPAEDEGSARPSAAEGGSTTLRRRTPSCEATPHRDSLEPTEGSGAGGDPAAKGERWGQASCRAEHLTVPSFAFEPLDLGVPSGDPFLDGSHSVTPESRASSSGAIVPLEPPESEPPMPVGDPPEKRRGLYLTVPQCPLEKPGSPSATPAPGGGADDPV

The IC50 is the concentration that inhibits the measured activity by half. For `CC(C)(C)NC(=O)CN1CCC2(CC1)C[C@@H]2NC(=O)[C@]12C[C@@]3(F)C[C@](F)(C[C@](F)(C3)C1)C2` (single isomer, unassigned) [Example 131, (3S,5S,7S)—N—((R)-6-(2-(tert-Butylamino)-2-oxoethyl)-6-azaspiro[2.5]octan-1-yl)-3,5,7-trifluoroadamantane-1-carboxamide or (3S,5S,7S)—N—((S)-6-(2-(tert-Butylamino)-2-oxoethyl)-6-azaspiro[2.5]octan-1-yl)-3,5,7-trifluoroadamantane-1-carboxamide], under setting [1], the IC50 was found to be 620 nM.

With `CC(C)(C)C(=O)CN1CCC2(CC1)C[C@H]2NC(=O)c1cc(F)cc(Cl)c1` (single isomer, unassigned) [Example 134, (R)-3-Chloro-N-(6-(3,3-dimethyl-2-oxobutyl)-6-azaspiro[2.5]octan-1-yl)-5-fluorobenzamide or (S)-3-Chloro-N-(6-(3,3-dimethyl-2-oxobutyl)-6-azaspiro[2.5]octan-1-yl)-5-fluorobenzamide], under setting [1], the IC50 is 120 nM.

Turning to `CC(C)(C)CCN1CCC2(CC1)CC2NC(=O)c1cc(Br)cc(Br)c1` (stereo not drawn) [Example 25, 3,5-Dibromo-N-(6-(3,3-dimethylbutyl)-6-azaspiro[2.5]octan-1-yl)benzamide], under setting [1], the IC50 was found to be 60 nM.

For orientation: inhibition means how much of the control response was suppressed. In the case of `O=C(CN1CCC(CNC(=O)c2ccccc2)CC1)Nc1ccccc1` [Example 101, N-((1-(2-Oxo-2-(phenylamino)ethyl)piperidin-4-yl)methyl)benzamide], 1 µM produced 44% inhibition.

Molecule `CC(C)(C)CCN1CCC2(CC1)CC2NC(=O)c1cccc(C(F)(F)F)c1` (stereo not drawn) [Example 29, N-(6-(3,3-Dimethylbutyl)-6-azaspiro[2.5]octan-1-yl)-3-(trifluoromethyl)benzamide] yielded an inhibition at 1 µM of 69%.

In turn, `CC(C)(C)CCN1CCC2(CC1)CC2NC(=O)c1ccc(Cl)cc1` (stereo not drawn) [Example 22, 4-Chloro-N-(6-(3,3-dimethylbutyl)-6-azaspiro[2.5]octan-1-yl)benzamide] gave an inhibition at 1 µM of 50%.

Turning to `O=C(NCC1CC12CCN(CCc1ccccc1)CC2)c1cc(Cl)cc(Cl)c1` (stereo not drawn) [Example 89, 3,5-Dichloro-N-((6-phenethyl-6-azaspiro[2.5]octan-1-yl)methyl)benzamide], the IC50 under setting [1] came to 90 nM.

For the molecule `CC(C)CN1CCC2(CC1)CC2NC(=O)c1ccc(Cl)c(Cl)c1` (stereo not drawn) [Example 6, 3,4-Dichloro-N-(6-isobutyl-6-azaspiro[2.5]octan-1-yl)benzamide], the inhibition at 3 µM was 29.1%.

In the case of `O=C(N[C@@H]1CCC12CCN(CCc1ccccc1)CC2)c1ccccc1` [Example 111], inhibition was half-maximal at 1500 nM (IC50) and at 1 µM the inhibition was 30%.

Consider `COc1cccc(C(=O)NCC2(C)CCN(CC(=O)NC(C)(C)C)CC2)c1` [Example 108, N-((1-(2-(tert-butylamino)-2-oxoethyl)-4-methylpiperidin-4-yl)methyl)-3-methoxybenzamide], for which 1 µM produced 53% inhibition.

On to `O=C(NC1CC12CCN(CCc1ccc(Cl)cc1)CC2)c1cc(Cl)cc(Cl)c1` (stereo not drawn) [Example 41, 3,5-Dichloro-N-(6-(4-chlorophenethyl)-6-azaspiro[2.5]octan-1-yl)benzamide], for which the IC50 under setting [1] came to 160 nM.

`Cc1cc(C(=O)Nc2nnc(-c3ccccc3)o2)no1` [Example 122, 5-Methyl-N-(5-phenyl-1,3,4-oxadiazol-2-yl)isoxazole-3-carboxamide] showed an inhibition at 1 µM of 14.9%.

Molecule `O=C(Nc1cc(Cl)cc(Cl)c1)C1CC12CCN(CCc1ccccc1)CC2` (stereo not drawn) [Example 92, N-(3,5-Dichlorophenyl)-6-phenethyl-6-azaspiro[2.5]octane-1-carboxamide] returned an inhibition at 1 µM of 35%.

In the case of `CC(C)(C)NC(=O)CN1CCC2(CC1)C[C@@H]2NC(=O)c1cc(Cl)cc(Cl)c1` (single isomer, unassigned) [Example 56, (S)—N-(6-(2-(tert-Butylamino)-2-oxoethyl)-6-azaspiro[2.5]octan-1-yl)-3,5-dichlorobenzamide or (R)—N-(6-(2-(tert-Butylamino)-2-oxoethyl)-6-azaspiro[2.5]octan-1-yl)-3,5-dichlorobenzamide], the IC50 under setting [1] worked out at 190 nM.

As to `CC(C)NC(=O)CN1CCC2(CC1)CC2NC(=O)c1cc(Cl)cc(Cl)c1` (stereo not drawn) [Example 37, 3,5-Dichloro-N-(6-(2-(isopropylamino)-2-oxoethyl)-6-azaspiro[2.5]octan-1-yl)benzamide], the IC50 under setting [1] was found to be 50 nM.

In the case of `CC(C)(C)CCN1CCC2(CC1)CC2NS(=O)(=O)c1cc(Cl)cc(Cl)c1` (stereo not drawn) [Example 51, 3,5-Dichloro-N-(6-(3,3-dimethylbutyl)-6-azaspiro[2.5]octan-1-yl)benzenesulfonamide], 1 µM produced 47% inhibition.

Turning to `CC(C)(C)NC(=O)CN1CCC2(CCC2NC(=O)c2cc(Cl)cc(Cl)c2)CC1` (stereo in doubt) [Example 114, (R)—N-(7-(2-(tert-Butylamino)-2-oxoethyl)-7-azaspiro[3.5]nonan-1-yl)-3,5-dichlorobenzamide], the IC50 under setting [1] worked out at 230 nM.

With `O=C(NC1CC12CCN(CCCc1ccccc1)CC2)c1cc(Cl)cc(Cl)c1` (stereo not drawn) [Example 45, 3,5-Dichloro-N-(6-(3-phenylpropyl)-6-azaspiro[2.5]octan-1-yl)benzamide], under setting [1], the IC50 was 40 nM.

Regarding `O=C(CN1CCC2(CC1)CC2NC(=O)c1cc(F)cc(Cl)c1)c1ccc(F)cc1` (single isomer, unassigned) [Example 138, (R)-3-Chloro-5-fluoro-N-(6-(2-(4-fluorophenyl)-2-oxoethyl)-6-azaspiro[2.5]octan-1-yl)benzamide or (S)-3-Chloro-5-fluoro-N-(6-(2-(4-fluorophenyl)-2-oxoethyl)-6-azaspiro[2.5]octan-1-yl)benzamide], the IC50 under setting [1] was determined as 180 nM.

Take `CC(C)(C)CCN1CCC2(CC1)CC2NC(=O)c1ccc(Cl)cc1Cl` (stereo not drawn) [Example 23, 2,4-Dichloro-N-(6-(3,3-dimethylbutyl)-6-azaspiro[2.5]octan-1-yl)benzamide]: testing at 1 µM gave an inhibition of 69%.

For `CC(C)(C)CCN1CCC2(CCC2NC(=O)c2cc(Cl)cc(Cl)c2)CC1` (stereo not drawn) [Example 69, 3,5-Dichloro-N-(7-(3,3-dimethylbutyl)-7-azaspiro[3.5]nonan-1-yl)benzamide], under setting [1], the IC50 was 280 nM.

As for `O=C(CN1CCC(CNC(=O)c2ccccc2)CC1)NC1CCCCC1` [Example 100, N-((1-(2-(Cyclohexylamino)-2-oxoethyl)piperidin-4-yl)methyl)benzamide], the inhibition at 1 µM stood at 26%.

`O=C(NC1CC12CCN(CCc1ccccc1)CC2)c1ccccc1` (stereo not drawn) [Example 3, N-(6-Phenethyl-6-azaspiro[2.5]octan-1-yl)benzamide]: the inhibition at 3 µM stood at 47.7%.

The molecule `O=S(=O)(NC1CC12CCN(CCc1ccccc1)CC2)c1cc(Cl)cc(Cl)c1` (stereo not drawn) [Example 52, 3,5-Dichloro-N-(6-phenethyl-6-azaspiro[2.5]octan-1-yl)benzenesulfonamide] came in with an inhibition at 1 µM of 29%.

As for `CC(C)(C)CCN1CCC2(CC1)CC2NC(=O)c1cc(C(F)(F)F)ccc1Cl` (stereo not drawn) [Example 142, 2-Chloro-N-(6-(3,3-dimethylbutyl)-6-azaspiro[2.5]octan-1-yl)-5-(trifluoromethyl)benzamide], under setting [1], the IC50 turned out to be 90 nM.

On to `O=C(NC1CC12CCN(Cc1ccccc1)CC2)c1cc(Cl)cc(Cl)c1` (stereo not drawn) [Example 15, N-(6-Benzyl-6-azaspiro[2.5]octan-1-yl)-3,5-dichlorobenzamide], for which the IC50 under setting [1] came out at 80 nM.
